One assay concerns A549. Description: Cytotoxicity against human A549 cells after 24 hrs by MTT assay. As to conditions: A549, 24 h. In kind it is functional, cell-based.
The test system of the next assay is MDA-MB-231. Description: Cytotoxicity against human MDA-MB-231 cells after 24 hrs by MTT assay. It counts as functional, cell-based. As to conditions: MDA-MB-231, 24 h.
In a further assay the test system is A2780. Description: Cytotoxicity against human A2780 cells after 24 hrs by MTT assay. It counts as functional, cell-based. The settings on record: A2780, 24 h.
Another assay relates to HeLa. Description: Cytotoxicity against human HeLa cells after 24 hrs by MTT assay. It counts as functional, cell-based.
The subject of another assay is HT-29. Description: Cytotoxicity against human HT-29 cells after 24 hrs by MTT assay. In kind it is functional, cell-based. The settings on record: HT-29, 24 h.
In the next assay the test system is HUVEC. Description: Cytotoxicity against human HUVEC after 24 hrs by MTT assay. In kind it is cell-based.

Bounds are passed on as bounds.

With `C=C([C@H](C)O)[C@@H]1C[C@H]2[C@@](C)(CC[C@@]3(O)C(C)(C)CCC[C@]23C)O1`, the IC50 in the assay on A549, with MDA-MB-231, in the assay with A2780, in the assay with HeLa, in the assay on HT-29 and with HUVEC was above 10 µM each time.

With `C=C([C@@H]1C[C@H]2[C@@](C)(CC[C@@]3(O)C(C)(C)CCC[C@]23C)O1)[C@@H](C)O`, the IC50 in the assay on A549, in the assay on MDA-MB-231, in the assay with A2780, with HeLa, with HT-29 and with HUVEC was above 10 µM each time.

For the compound `C=C([C@H](C)O)[C@@H]1C[C@H]2[C@@](C)(CC[C@@]3(O)C(C)(C)CCC(=O)[C@]23C)O1`, the IC50 in the assay on A549, with MDA-MB-231, with A2780, in the assay on HeLa, in the assay with HT-29 and in the assay with HUVEC was above 10 µM throughout.

Regarding `C=C([C@@H]1C[C@H]2[C@@](C)(CC[C@@]3(O)C(C)(C)CCC(=O)[C@]23C)O1)[C@@H](C)O`, the IC50 in the assay with A549, with MDA-MB-231, with A2780, in the assay with HeLa, in the assay on HT-29 and in the assay with HUVEC was above 10 µM throughout.

As for `C=C([C@H](C)O)[C@@H]1C[C@@H]2[C@@]3(C)[C@@H](O)CCC(C)(C)[C@]3(O)CC[C@@]2(C)O1`, the IC50 in the assay with A549, with MDA-MB-231, in the assay on A2780, in the assay on HeLa, in the assay on HT-29 and in the assay on HUVEC was above 10 µM in each case.

As to `C=C([C@@H]1C[C@@H]2[C@@]3(C)[C@@H](O)CCC(C)(C)[C@]3(O)CC[C@@]2(C)O1)[C@@H](C)O`, the IC50 with A549, in the assay on MDA-MB-231, in the assay with A2780, in the assay on HeLa, in the assay with HT-29 and in the assay on HUVEC was above 10 µM each time.

Regarding `C=C(C(C)=O)[C@@H]1C[C@@H]2[C@@]3(C)[C@@H](O)CCC(C)(C)[C@]3(O)CC[C@@]2(C)O1`, the IC50 in the assay on A549 is above 10 µM; with MDA-MB-231, 4.1 µM; in the assay with A2780 it was 5.3 µM; in the assay with HeLa, 6.6 µM; with HT-29, 5.8 µM; with HUVEC it was above 10 µM.

On to `C=C(C(C)=O)[C@H]1C[C@@H]2[C@@]3(C)[C@@H](O)CCC(C)(C)[C@]3(O)CC[C@@]2(C)O1`, for which the IC50 in the assay on A549 is above 10 µM; in the assay with MDA-MB-231, 5.4 µM; with A2780 it was 4.4 µM; in the assay with HeLa it was 5.5 µM; with HT-29 it was 7 µM; in the assay with HUVEC, above 10 µM.

Take `C=C(C(C)=O)[C@@H]1C[C@H]2[C@@](C)(CC[C@@]3(O)C(C)(C)CCC(=O)[C@]23C)O1`: the IC50 with A549 was above 10 µM; in the assay on MDA-MB-231 it was 5 µM; with A2780, 7.8 µM; in the assay with HeLa, 8.7 µM; in the assay with HT-29, 6.8 µM; with HUVEC it was above 10 µM.

On to `C=C(C(C)=O)[C@@H]1C[C@H]2[C@@](C)(CC[C@@]3(O)C(C)(C)CCC[C@]23C)O1`, for which the half-maximal inhibitory concentration (IC50) is above 10 µM with A549; 4.2 µM in the assay on MDA-MB-231; 8.6 µM in the assay on A2780; 8.3 µM in the assay on HeLa; 5.2 µM in the assay with HT-29; 3 µM in the assay on HUVEC.

For `C/C=C(\C)[C@@H]1C[C@H]2[C@@](C)(CC[C@@]3(O)C(C)(C)CCC[C@]23C)O1`, the IC50 with A549, in the assay with MDA-MB-231, with A2780, in the assay with HeLa, in the assay on HT-29 and in the assay with HUVEC was above 10 µM in each case.

With `C/C=C(\C)[C@@H]1C[C@H]2[C@@](C)(CC[C@@]3(O)C(C)(C)CCC(=O)[C@]23C)O1`, the IC50 in the assay on A549, in the assay on MDA-MB-231, with A2780, with HeLa, with HT-29 and in the assay on HUVEC was above 10 µM in each case.

`C[C@H]1O[C@]1(C)C(=O)C[C@@H]1[C@@]2(C)[C@@H](O)CCC(C)(C)[C@]2(O)CC[C@@]1(C)O`: the half-inhibitory concentration (IC50) in the assay with A549, with MDA-MB-231, in the assay with A2780, in the assay on HeLa, in the assay with HT-29 and in the assay with HUVEC was above 10 µM throughout.

For `C[C@@H]1O[C@@]1(C)C(=O)C[C@@H]1[C@@]2(C)[C@@H](O)CCC(C)(C)[C@]2(O)CC[C@@]1(C)O`, the IC50 in the assay with A549, in the assay on MDA-MB-231, with A2780, in the assay on HeLa, in the assay on HT-29 and in the assay with HUVEC was above 10 µM throughout.

Turning to `C[C@@H]1O[C@@]1(C)C(=O)C[C@H]1[C@](C)(O)CC[C@@]2(O)C(C)(C)CCC[C@]12C`, the IC50 with A549, with MDA-MB-231, with A2780, with HeLa, in the assay with HT-29 and in the assay on HUVEC was above 10 µM each time.

For the compound `C[C@H]1O[C@]1(C)C(=O)C[C@H]1[C@](C)(O)CC[C@@]2(O)C(C)(C)CCC[C@]12C`, the IC50 in the assay on A549, in the assay on MDA-MB-231, in the assay with A2780, with HeLa, in the assay with HT-29 and in the assay with HUVEC was above 10 µM in each case.

On to `CC1(C)CCC[C@]2(C)C3=CC(=O)O[C@]3(C)CC[C@@]12O`, for which the IC50 with A549, with MDA-MB-231, in the assay on A2780, in the assay with HeLa, with HT-29 and in the assay on HUVEC was above 10 µM each time.

In the case of `C/C=C(\C)C(=O)C[C@]1(O)[C@@]2(C)CCCC(C)(C)[C@]2(O)CC[C@@]1(C)O`, the IC50 in the assay on A549, in the assay on MDA-MB-231, with A2780, in the assay on HeLa, in the assay on HT-29 and in the assay on HUVEC was above 10 µM in each case.

As to `C/C=C(\C)C(=O)C[C@@H]1[C@@]2(C)[C@@H](O)CCC(C)(C)[C@]2(O)CC[C@@]1(C)O`, the concentration for half-maximal inhibition (IC50) in the assay on A549, with MDA-MB-231, in the assay with A2780, in the assay on HeLa, in the assay on HT-29 and in the assay on HUVEC was above 10 µM in each case.

Consider `C/C=C(\C)C(=O)C[C@H]1[C@](C)(O)CC[C@@]2(O)C(C)(C)CCC[C@]12C`, for which the 50% inhibitory concentration (IC50) with A549, with MDA-MB-231, with A2780, with HeLa, in the assay with HT-29 and with HUVEC was above 10 µM throughout.

As for `COc1cccc2c1C(=O)c1c(O)c3c(c(O)c1C2=O)C[C@@](O)(C(=O)CO)C[C@@H]3O[C@H]1C[C@H](N)[C@H](O)[C@H](C)O1` [DOXORUBICIN], the IC50 with MDA-MB-231 is 0.6 µM; in the assay with HeLa, 5.2 µM; in the assay with HT-29, 1.7 µM; in the assay on HUVEC, 6.3 µM.

The values above are taken from ChEMBL document CHEMBL3600372, “Scapairrins A-Q, Labdane-Type Diterpenoids from the Chinese Liverwort Scapania irrigua and Their Cytotoxic Activity” (J Nat Prod, 2015).
